{"source": "PubChem BioAssay (NCI)", "assay_in_all_cases": "NCI-60 cell line screen, 48 h", "key": {"[1]": {"tested_on": "786-0 renal"}, "[2]": {"tested_on": "A498 renal"}, "[3]": {"tested_on": "A549 NSCLC"}, "[4]": {"tested_on": "ACHN renal"}, "[5]": {"tested_on": "CAKI-1 renal"}, "[6]": {"tested_on": "CCRF-CEM leukemia"}, "[7]": {"tested_on": "COLO 205 colon"}, "[8]": {"tested_on": "DLD-1 colon"}, "[9]": {"tested_on": "DMS 114 small cell lung"}, "[10]": {"tested_on": "DMS 273 small cell lung"}, "[11]": {"tested_on": "DU-145 prostate"}, "[12]": {"tested_on": "EKVX NSCLC"}, "[13]": {"tested_on": "HCC-2998 colon"}, "[14]": {"tested_on": "HCT-116 colon"}, "[15]": {"tested_on": "HCT-15 colon"}, "[16]": {"tested_on": "HL-60(TB) leukemia"}, "[17]": {"tested_on": "HOP-18 NSCLC"}, "[18]": {"tested_on": "HOP-62 NSCLC"}, "[19]": {"tested_on": "HOP-92 NSCLC"}, "[20]": {"tested_on": "HS 578T breast"}, "[21]": {"tested_on": "HT29 colon"}, "[22]": {"tested_on": "IGROV1 ovarian"}, "[23]": {"tested_on": "K-562 leukemia"}, "[24]": {"tested_on": "KM12 colon"}, "[25]": {"tested_on": "KM20L2 colon"}, "[26]": {"tested_on": "LOX IMVI melanoma"}, "[27]": {"tested_on": "LXFL 529 NSCLC"}, "[28]": {"tested_on": "M14 melanoma"}, "[29]": {"tested_on": "M19-MEL melanoma"}, "[30]": {"tested_on": "MALME-3M melanoma"}, "[31]": {"tested_on": "MCF7 breast"}, "[32]": {"tested_on": "MDA-MB-231 breast"}, "[33]": {"tested_on": "MDA-MB-435"}, "[34]": {"tested_on": "MDA-N"}, "[35]": {"tested_on": "MOLT-4 leukemia"}, "[36]": {"tested_on": "NCI-H226 lung"}, "[37]": {"tested_on": "NCI-H23 lung"}, "[38]": {"tested_on": "NCI-H460 lung"}, "[39]": {"tested_on": "NCI-H522 lung"}, "[40]": {"tested_on": "NCI/ADR-RES ovarian"}, "[41]": {"tested_on": "OVCAR-3 ovarian"}, "[42]": {"tested_on": "OVCAR-4 ovarian"}, "[43]": {"tested_on": "OVCAR-5 ovarian"}, "[44]": {"tested_on": "OVCAR-8 ovarian"}, "[45]": {"tested_on": "PC-3 prostate"}, "[46]": {"tested_on": "RPMI-8226 leukemia"}, "[47]": {"tested_on": "RXF 393 renal"}, "[48]": {"tested_on": "RXF-631 renal"}, "[49]": {"tested_on": "SF-268 CNS"}, "[50]": {"tested_on": "SF-295 CNS"}, "[51]": {"tested_on": "SF-539 CNS"}, "[52]": {"tested_on": "SK-MEL-2 melanoma"}, "[53]": {"tested_on": "SK-MEL-28 melanoma"}, "[54]": {"tested_on": "SK-MEL-5 melanoma"}, "[55]": {"tested_on": "SK-OV-3 ovarian"}, "[56]": {"tested_on": "SN12C renal"}, "[57]": {"tested_on": "SNB-19 CNS"}, "[58]": {"tested_on": "SNB-75 CNS"}, "[59]": {"tested_on": "SNB-78 CNS"}, "[60]": {"tested_on": "SR leukemia"}, "[61]": {"tested_on": "SW-620 colon"}, "[62]": {"tested_on": "T-47D breast"}, "[63]": {"tested_on": "TK-10 renal"}, "[64]": {"tested_on": "U251 CNS"}, "[65]": {"tested_on": "UACC-257 melanoma"}, "[66]": {"tested_on": "UACC-62 melanoma"}, "[67]": {"tested_on": "UO-31 renal"}, "[68]": {"tested_on": "XF 498 CNS"}}, "note": "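Cultured in 96-well plates, cells were exposed to test compound for 48 hours across five concentrations. TGI marks complete inhibition of growth.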", "data": [{"smiles": "CCc1cccc(CC)c1NC(=S)NC(=O)c1ccc(Br)cc1", "values": [{"measurement": "TGI", "setting": "[1]", "result": "> 100", "unit": "µM"}, {"measurement": "TGI", "setting": "[2]", "result": "> 100", "unit": "µM"}, {"measurement": "TGI", "setting": "[3]", "result": "> 100", "unit": "µM"}, {"measurement": "TGI", "setting": "[4]", "result": "> 100", "unit": "µM"}, {"measurement": "TGI", "setting": "[5]", "result": "> 96", "unit": "µM"}, {"measurement": "TGI", "setting": "[6]", "result": "> 31.6", "unit": "µM"}, {"measurement": "TGI", "setting": "[7]", "result": "> 53.3", "unit": "µM"}, {"measurement": "TGI", "setting": "[8]", "result": "> 100", "unit": "µM"}, {"measurement": "TGI", "setting": "[9]", "result": "> 100", "unit": "µM"}, {"measurement": "TGI", "setting": "[10]", "result": "> 100", "unit": "µM"}, {"measurement": "TGI", "setting": "[11]", "result": "> 100", "unit": "µM"}, {"measurement": "TGI", "setting": "[12]", "result": "> 100", "unit": "µM"}, {"measurement": "TGI", "setting": "[13]", "result": "> 100", "unit": "µM"}, {"measurement": "TGI", "setting": "[14]", "result": "> 100", "unit": "µM"}, {"measurement": "TGI", "setting": "[15]", "result": "> 78.4", "unit": "µM"}, {"measurement": "TGI", "setting": "[16]", "result": 26.3, "unit": "µM"}, {"measurement": "TGI", "setting": "[17]", "result": "> 100", "unit": "µM"}, {"measurement": "TGI", "setting": "[18]", "result": "> 100", "unit": "µM"}, {"measurement": "TGI", "setting": "[19]", "result": 64.6, "unit": "µM"}, {"measurement": "TGI", "setting": "[20]", "result": "> 100", "unit": "µM"}, {"measurement": "TGI", "setting": "[21]", "result": "> 100", "unit": "µM"}, {"measurement": "TGI", "setting": "[22]", "result": "> 100", "unit": "µM"}, {"measurement": "TGI", "setting": "[23]", "result": "> 100", "unit": "µM"}, {"measurement": "TGI", "setting": "[24]", "result": "> 100", "unit": "µM"}, {"measurement": "TGI", "setting": "[25]", "result": "> 100", "unit": "µM"}, {"measurement": "TGI", "setting": "[26]", "result": "> 56.2", "unit": "µM"}, {"measurement": "TGI", "setting": "[27]", "result": "> 100", "unit": "µM"}, {"measurement": "TGI", "setting": "[28]", "result": "> 81.2", "unit": "µM"}, {"measurement": "TGI", "setting": "[29]", "result": "> 100", "unit": "µM"}, {"measurement": "TGI", "setting": "[30]", "result": "> 77.1", "unit": "µM"}, {"measurement": "TGI", "setting": "[31]", "result": 71.7, "unit": "µM"}, {"measurement": "TGI", "setting": "[32]", "result": "> 100", "unit": "µM"}, {"measurement": "TGI", "setting": "[33]", "result": 83.5, "unit": "µM"}, {"measurement": "TGI", "setting": "[34]", "result": "> 100", "unit": "µM"}, {"measurement": "TGI", "setting": "[35]", "result": 53.9, "unit": "µM"}, {"measurement": "TGI", "setting": "[36]", "result": "> 95.5", "unit": "µM"}, {"measurement": "TGI", "setting": "[37]", "result": "> 100", "unit": "µM"}, {"measurement": "TGI", "setting": "[38]", "result": 41.6, "unit": "µM"}, {"measurement": "TGI", "setting": "[39]", "result": 51.3, "unit": "µM"}, {"measurement": "TGI", "setting": "[40]", "result": "> 100", "unit": "µM"}, {"measurement": "TGI", "setting": "[41]", "result": "> 100", "unit": "µM"}, {"measurement": "TGI", "setting": "[42]", "result": "> 50.4", "unit": "µM"}, {"measurement": "TGI", "setting": "[43]", "result": "> 100", "unit": "µM"}, {"measurement": "TGI", "setting": "[44]", "result": "> 100", "unit": "µM"}, {"measurement": "TGI", "setting": "[45]", "result": "> 100", "unit": "µM"}, {"measurement": "TGI", "setting": "[46]", "result": "> 100", "unit": "µM"}, {"measurement": "TGI", "setting": "[47]", "result": "> 78", "unit": "µM"}, {"measurement": "TGI", "setting": "[48]", "result": "> 100", "unit": "µM"}, {"measurement": "TGI", "setting": "[49]", "result": "> 100", "unit": "µM"}, {"measurement": "TGI", "setting": "[50]", "result": "> 100", "unit": "µM"}, {"measurement": "TGI", "setting": "[51]", "result": "> 100", "unit": "µM"}, {"measurement": "TGI", "setting": "[52]", "result": 48.9, "unit": "µM"}, {"measurement": "TGI", "setting": "[53]", "result": "> 100", "unit": "µM"}, {"measurement": "TGI", "setting": "[54]", "result": "> 71.6", "unit": "µM"}, {"measurement": "TGI", "setting": "[55]", "result": "> 100", "unit": "µM"}, {"measurement": "TGI", "setting": "[56]", "result": "> 81.4", "unit": "µM"}, {"measurement": "TGI", "setting": "[57]", "result": "> 100", "unit": "µM"}, {"measurement": "TGI", "setting": "[58]", "result": "> 96.6", "unit": "µM"}, {"measurement": "TGI", "setting": "[59]", "result": "> 100", "unit": "µM"}, {"measurement": "TGI", "setting": "[60]", "result": 66.3, "unit": "µM"}, {"measurement": "TGI", "setting": "[61]", "result": "> 100", "unit": "µM"}, {"measurement": "TGI", "setting": "[62]", "result": "> 100", "unit": "µM"}, {"measurement": "TGI", "setting": "[63]", "result": "> 64.1", "unit": "µM"}, {"measurement": "TGI", "setting": "[64]", "result": "> 100", "unit": "µM"}, {"measurement": "TGI", "setting": "[65]", "result": "> 100", "unit": "µM"}, {"measurement": "TGI", "setting": "[66]", "result": "> 100", "unit": "µM"}, {"measurement": "TGI", "setting": "[67]", "result": "> 100", "unit": "µM"}, {"measurement": "TGI", "setting": "[68]", "result": "> 100", "unit": "µM"}]}]}
